Reference: publication PMC11582173, “Synthesis, cytotoxicity, anti-inflammatory, anti-metastatic and anti-oxidant activities of novel chalcones incorporating 2-phenoxy-N-arylacetamide and thiophene moieties: induction of apoptosis in MCF7 and HEP2 cells” (Naunyn-Schmiedeberg's Archives of Pharmacology, 2024)

Tested on: IL-1B gene
Assay: Real-time PCR, IL-1B gene expression
Assay type: cell-based, human
Conditions: relative to untreated control (1)
Protocol: The expression level of the following six genes (Ki-67, Survivin, Interleukin-1 beta (IL-1B), Interleukin-6 (IL-6), Cyclooxygenase-2 (COX-2) and protein kinase B (AKT1)) was determined in MCF7 and HEP2 treated with the IC50 of compound 5c. The untreated cells were used as a negative control for comparison purposes. […] Ki-67 is a popular proliferation marker for human tumor cells. […] Survivin is an inhibitor of apoptotic protein (IAP) family member, which is essential for cell division. The lowering of the expression of survivin inhibited tumor development, triggered apoptosis, and made tumor cells more susceptible to radiation and chemotherapy (Albadari and Li [2023]). […] IL-1B is a pleiotropic mediator of inflammation, which is produced in response to a variety of stressors (Aarreberg et al. [2019]). […] IL-6 is a pro-inflammatory cytokine that plays a significant role in the proliferation and differentiation of human cells. It promotes the production of numerous proteins involved in acute inflammation (Uciechowski and Dempke [2020]). […]
The expression level of the following six genes (Ki-67, survivin, AKT1, IL-6, COX2, and IL-1B) was examined using real-time polymerase chain reaction (qPCR) (Mohamed et al. [2023a]). […] The cycle threshold (Ct) was determined automatically. […]

## COc1ccc(NC(=O)COc2ccc(C=CC(=O)c3cccs3)cc2)cc1 [Compound 5c, N-(4-Methoxyphenyl)-2-(4-(3-oxo-3-(thiophen-2-yl)prop-1-en-1-yl)phenoxy)acetamide]
HEP2 cells treated with IC50 of 5c
  IL-1B expression folding: 0.461±0.069 fold
MCF7 cells treated with IC50 of 5c
  IL-1B expression folding: 0.4008±0.116 fold
